Measured values: patent US9586928B2 (The Scripps Research Institute, priority 2011, dated 2017)

Key:
RORα = target: T1, RORα (Homo sapiens, UniProt P35398); experiment: Gal4-RORα LBD / UAS luciferase cotransfection assay; type: cell-based; settings: 10 μM
T1 construct: expressed in transfected cells; host or cells: HEK293T
T1 sequence (P35398 272-510 limits assumed): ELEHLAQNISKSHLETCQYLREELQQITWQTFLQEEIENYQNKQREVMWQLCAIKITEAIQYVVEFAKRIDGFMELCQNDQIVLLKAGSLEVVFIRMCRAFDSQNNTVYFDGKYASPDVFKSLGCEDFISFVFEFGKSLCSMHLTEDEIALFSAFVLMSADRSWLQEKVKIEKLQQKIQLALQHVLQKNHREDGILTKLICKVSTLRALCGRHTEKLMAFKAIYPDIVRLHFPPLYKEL

GST-RORγ = target: T2, GST-RORγ (Homo sapiens, UniProt P51449); experiment: RORγ scintillation proximity (SPA) radioligand binding assay, displacement of [3H]-T0901317; settings: for remaining activity at 10 µM: 10 μM compound, read-out: RORγ SPA % bound = % radiolabel bound
T2 construct: 1 μg of GST-RORγ-LBD, 5 nM of [3H]T1317 as radioligand
T2 sequence (P51449 269-508 limits assumed): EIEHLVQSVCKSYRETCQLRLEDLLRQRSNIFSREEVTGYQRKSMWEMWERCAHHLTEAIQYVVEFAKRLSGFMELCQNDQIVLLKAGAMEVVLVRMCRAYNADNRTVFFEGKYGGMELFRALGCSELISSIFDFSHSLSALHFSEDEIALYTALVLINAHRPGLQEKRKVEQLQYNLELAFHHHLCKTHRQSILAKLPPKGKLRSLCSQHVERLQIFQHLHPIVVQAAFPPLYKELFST

VP16 = experiment: Gal4 DBD-VP16 / UAS luciferase control assay; type: cell-based; settings: 10 μM
Description: The cells were treated with either DMSO or various compounds as indicated four hours after replating. Following additional 20 hour incubation, luciferase levels were assayed by one-step addition of 20 μL BriteLite (Perkin Elmer) and read using an Envision multilabel plate reader (Perkin Elmer).

LXR = target: T3, LXR (Homo sapiens, UniProt Q13133); experiment: Gal4-LXRα / UAS luciferase cotransfection assay; type: cell-based; settings: 10 μM
T3 sequence (Q13133 209-447 limits assumed): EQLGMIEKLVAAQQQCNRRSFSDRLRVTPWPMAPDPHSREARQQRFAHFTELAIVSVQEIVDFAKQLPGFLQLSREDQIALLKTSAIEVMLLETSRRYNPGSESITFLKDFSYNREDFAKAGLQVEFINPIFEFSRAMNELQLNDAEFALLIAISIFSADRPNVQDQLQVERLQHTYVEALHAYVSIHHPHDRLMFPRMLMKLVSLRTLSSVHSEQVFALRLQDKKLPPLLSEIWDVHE

RORγ = target: T4, RORγ (Homo sapiens, UniProt P51449); experiment: Gal4-RORγ LBD / UAS luciferase cotransfection assay; type: cell-based; settings: 10 μM
T4 construct: expressed in transfected cells; host or cells: HEK293T
T4 sequence (P51449 269-508 limits assumed): T2 sequence (P51449 269-508 limits assumed)

| SMILES | RORα repression, fold change over DMSO (RORα) | IC50 (GST-RORγ; displacement of 5 nM [3H]-T0901317 from GST-RORγ) | VP16 repression, fold change over DMSO (VP16) | LXR activation, fold change over DMSO (LXR) | RORγ repression, fold change over DMSO (RORγ) | remaining activity at 10 µM (GST-RORγ) |
| --- | --- | --- | --- | --- | --- | --- |
| COc1cc(-c2ccc(C(O)(C(F)(F)F)C(F)(F)F)cc2)ccc1CN1CCN(Cc2ccncc2)CC1 [Compound 97, 1,1,1,3,3,3-Hexafluoro-2-(3′-methoxy-4′-((4-(pyridin-4-ylmethyl)piperazin-1-yl)methyl)-[1,1′-biphenyl]-4-yl)propan-2-ol] | 0.5 fold change over DMSO | 1.5 µM | 0.5 fold change over DMSO | 1 fold change over DMSO | 0.05 fold change over DMSO |  |
| OC(c1ccc(-c2ccc(CN3CCC(Cc4ccc5c(c4)OCO5)CC3)cc2)cc1)(C(F)(F)F)C(F)(F)F [Compound 88, 2-(4′-((4-(Benzo[d][1.3]dioxol-5-ylmethyl)piperidin-1-yl)methyl)-[1,1′-biphenyl]-4-yl)-1,1,1,3,3,3-hexafluoropropan-2-ol] | 0.6 fold change over DMSO |  | 0.3 fold change over DMSO | 1.3 fold change over DMSO | 0.2 fold change over DMSO | 35% |
| O=C(c1cscn1)N1CCN(Cc2ccc(-c3ccc(C(O)(C(F)(F)F)C(F)(F)F)cc3)cc2)CC1 [Compound 116, (4-((4′-(1,1,1,3,3,3-Hexafluoro-2-hydroxypropan-2-yl)-[1,1′-biphenyl]-4-yl)methyl)piperazin-1-yl)(thiazol-4-yl)methanone] | 0.56 fold change over DMSO |  | 0.76 fold change over DMSO | 0.81 fold change over DMSO | 0.59 fold change over DMSO | 76% |
| OC(c1ccc(-c2ccc(CN3CCN(Cc4ccncc4Cl)CC3)cc2)cc1)(C(F)(F)F)C(F)(F)F [Compound 92] | 0.7 fold change over DMSO |  | 0.6 fold change over DMSO | 5 fold change over DMSO | 0.1 fold change over DMSO | 25% |
| CS(=O)(=O)N1CCN(Cc2ccc(-c3ccc(C(O)(C(F)(F)F)C(F)(F)F)cc3)cc2)CC1 [Compound 28, 1,1,1,3,3,3-Hexafluoro-2-(4′-((4-(methylsulfonyl)piperazin-1-yl)methyl)-[1,1′-biphenyl]-4-yl)propan-2-ol] | 1.1 fold change over DMSO |  | 0.75 fold change over DMSO | 1.5 fold change over DMSO | 0.5 fold change over DMSO |  |
| O=C(C1CCCO1)N1CCN(Cc2ccc(-c3ccc(C(O)(C(F)(F)F)C(F)(F)F)cc3)cc2)CC1 (centres unmarked) [Compound 16, (4-((4′-(1,1,1,3,3,3-Hexafluoro-2-hydroxypropan-2-yl)-[1,1′-biphenyl]-4-yl)methyl)piperazin-1-yl)(tetrahydrofuran-2-yl)methanone] | 0.8 fold change over DMSO |  | 0.6 fold change over DMSO | 1.4 fold change over DMSO | 0.6 fold change over DMSO |  |
| OC(c1ccc(-c2ccc(CN3CCN(Cc4ccncc4)CC3)c(Cl)c2)cc1)(C(F)(F)F)C(F)(F)F [Compound 93, 2-(3′-Chloro-4′-((4-(pyridin-4-ylmethyl)piperazin-1-yl)methyl)-[1,1′-biphenyl]-4-yl)-1,1,1,3,3,3-hexafluoropropan-2-ol] | 0.4 fold change over DMSO |  | 0.7 fold change over DMSO | 1.5 fold change over DMSO | 0.05 fold change over DMSO |  |
| OC(c1ccc(-c2ccc(CN3CCN(Cc4c(F)cncc4F)CC3)cc2)cc1)(C(F)(F)F)C(F)(F)F [Compound 101, 2-(4′-((4-((3,5-Difluoropyridin-4-yl)methyl)piperazin-1-yl)methyl)-[1,1′-biphenyl]-4-yl)-1,1,1,3,3,3-hexafluoropropan-2-ol] | 0.8 fold change over DMSO |  | 0.75 fold change over DMSO | 4 fold change over DMSO | 0.15 fold change over DMSO |  |
| OCCN1CCN(Cc2ccc(-c3ccc(C(O)(C(F)(F)F)C(F)(F)F)cc3)cc2)CC1 [Compound 2, 1,1,1,3,3,3-Hexafluoro-2-(4′-((4-(2-hydroxyethyl)piperazin-1-yl)methyl)-[1,1′-biphenyl]-4-yl)propan-2-ol] | 1.3 fold change over DMSO |  | 0.9 fold change over DMSO | 1.1 fold change over DMSO | 0.9 fold change over DMSO |  |
| Cc1cc(CN2CCN(Cc3ccc(-c4ccc(C(O)(C(F)(F)F)C(F)(F)F)cc4)cc3)CC2)ccn1 [Compound 43, 1,1,1,3,3,3-Hexafluoro-2-(4′-((4-((2-methylpyridin-4-yl)methyl)piperazin-1-yl)methyl)-[1,1′-biphenyl]-4-yl)propan-2-ol] | 0.6 fold change over DMSO |  | 0.6 fold change over DMSO | 1 fold change over DMSO | 0.1 fold change over DMSO |  |
| OC(c1ccc(-c2ccc(CN3CCN(c4ccccc4)CC3)cc2)cc1)(C(F)(F)F)C(F)(F)F [Compound 14, 1,1,1,3,3,3-Hexafluoro-2-(4′-((4-phenylpiperazin-1-yl)methyl)-[1,1′-biphenyl]-4-yl)propan-2-ol] | 0.4 fold change over DMSO |  | 0.4 fold change over DMSO | 5 fold change over DMSO | 0.05 fold change over DMSO |  |
| O=C(Nc1ccccc1)N1CCN(Cc2ccc(-c3ccc(C(O)(C(F)(F)F)C(F)(F)F)cc3)cc2)CC1 [Compound 23, 4-((4′-(1,1,1,3,3,3-Hexafluoro-2-hydroxypropan-2-yl)-[1,1′-biphenyl]-4-yl)methyl)-N-phenylpiperazine-1-carboxamide] | 0.9 fold change over DMSO |  | 0.55 fold change over DMSO | 2 fold change over DMSO | 0.5 fold change over DMSO |  |
| O=S(=O)(c1ccccc1)N1CCN(Cc2ccc(-c3ccc(C(O)(C(F)(F)F)C(F)(F)F)cc3)cc2)CC1 [Compound 29, 1,1,1,3,3,3-Hexafluoro-2-(4′-((4-(phenylsulfonyl)piperazin-1-yl)methyl)-[1,1′-biphenyl]-4-yl)propan-2-ol] | 1 fold change over DMSO |  | 0.8 fold change over DMSO | 1.8 fold change over DMSO | 0.8 fold change over DMSO |  |
| CCCNC(=O)N1CCN(Cc2ccc(-c3ccc(C(O)(C(F)(F)F)C(F)(F)F)cc3)cc2)CC1 [Compound 22, 4-((4′-(1,1,1,3,3,3-Hexafluoro-2-hydroxypropan-2-yl)-[1,1′-biphenyl]-4-yl)methyl)-N-propylpiperazine-1-carboxamide] | 0.5 fold change over DMSO |  | 0.4 fold change over DMSO | 1.8 fold change over DMSO | 0.4 fold change over DMSO |  |
| CCC(=O)N1CCN(Cc2ccc(-c3ccc(C(O)(C(F)(F)F)C(F)(F)F)cc3)cc2)CC1 [Compound 25, 1-(4-((4′-(1,1,1,3,3,3-Hexafluoro-2-hydroxypropan-2-yl)-[1,1′-biphenyl]-4-yl)methyl)piperazin-1-yl)propan-1-one] | 0.7 fold change over DMSO |  | 0.5 fold change over DMSO | 1 fold change over DMSO | 0.45 fold change over DMSO |  |
| O=C(Cc1ccccc1)N1CCN(Cc2ccc(-c3ccc(C(O)(C(F)(F)F)C(F)(F)F)cc3)cc2)CC1 [Compound 27, 1-(4-((4′-(1,1,1,3,3,3-Hexafluoro-2-hydroxypropan-2-yl)-[1,1′-biphenyl]-4-yl)methyl)piperazin-1-yl)-2-phenylethanone] | 0.5 fold change over DMSO |  | 0.3 fold change over DMSO | 0.8 fold change over DMSO | 0.25 fold change over DMSO |  |
